“And” between values parts separate entries of the source, which are not always exact repeats. Identical values can stand only once.

Data on two compounds can be found in patent US20060111305A1, “Metabolites of certain [1,4]diazepino[6,7,1-ij]quinoline derivatives and methods of preparation and use thereof” (Wyeth, priority 2004, published 2006).

For one data set, the target named is T1, 5-HT2C (Homo sapiens, UniProt P28335).
T1 sequence (P28335 33-458): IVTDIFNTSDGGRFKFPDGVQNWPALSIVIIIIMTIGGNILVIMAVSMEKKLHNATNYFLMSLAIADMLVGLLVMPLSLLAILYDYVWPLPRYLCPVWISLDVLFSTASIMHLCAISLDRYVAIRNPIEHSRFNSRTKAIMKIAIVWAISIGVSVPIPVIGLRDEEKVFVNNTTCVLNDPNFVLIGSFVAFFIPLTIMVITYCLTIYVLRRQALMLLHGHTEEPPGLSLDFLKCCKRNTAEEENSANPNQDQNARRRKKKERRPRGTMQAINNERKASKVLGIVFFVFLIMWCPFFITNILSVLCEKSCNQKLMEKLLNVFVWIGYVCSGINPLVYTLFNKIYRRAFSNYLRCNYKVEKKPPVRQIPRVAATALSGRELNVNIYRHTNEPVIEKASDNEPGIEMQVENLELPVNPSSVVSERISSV
The settings on record: see WO03/091250 and US2004/0009970; cited from earlier work.

Data set [1] in a line: Rat blood and plasma radioactivity concentrations after single oral 5 mg/kg [14C]DCDQ. It counts as in vivo, Sprague-Dawley rats. The following applies: for Blood concentration of radioactivity, individuals / Plasma concentration of radioactivity, individuals: 5 mg/kg. As to the method:
Dose preparation, animal dosing, and specimen collection were performed at Wyeth Research, Collegeville, Pa. The dose vehicle contained 2% (w/w) Tween 80 and 0.5% methylcellulose in water. […] Male rats weighing from 318 to 345 grams and female rats weighing from 227 to 255 grams at the time of dosing were purchased from Charles River Laboratories, Wilmington, Mass. Non-fasted rats were given a single 5 mg/kg (˜300 μCi/kg) dose of DCDQ at a volume of 2.5 mL/kg via intragastric gavage. Animals were provided Purina rat chow and water ad libitum, and were kept individually in metabolism cages. Male rats were sacrificed at 2, 4, 8 and 24 hour after dose administration. Female rats were sacrificed at 2 and 8 hour after dose administration. At sacrifice, blood samples were collected by cardiac puncture into tubes containing EDTA as the anticoagulant and placing them on ice. Aliquots of 50 μL were removed for combustion and determination of radioactivity content. Plasma was immediately obtained from the remaining blood by centrifugation at 4° C. Brains were excised after perfusion with 50 mL of chilled sterile saline. Urine samples were collected on dry ice at intervals of 0-8 and 8-24 hour post-dosing. Feces were collected at intervals of 0-8 and 8-24 hr post-dosing at room temperature and were homogenized as described previously. The biological specimens and aliquots of the dosing solution at pre- and post-dose were stored at approximately −70° C. until analyzed. Plasma (20 μL) and urine (50 μL) aliquots were analyzed for radioactivity concentrations. Radioactivity determinations of dose, plasma and urine were made with a Tri-Carb Model 3100 TR/LL liquid scintillation counter (LSC) (Perkin Elmer) using 10 mL of Ultima Gold as the scintillation fluid. […] Blood aliquots (50 μL), brain homogenates (0.1 gram) and fecal homogenates (0.2 gram) were placed on Combusto-cones with Combusto-pads and combusted. A model 307 Tri-Carb Sample Oxidizer, equipped with an Oximate-80 Robotic Automatic Sampler (Perkin Elmer), was used for combustion. The liberated ^14CO2 was trapped with Carbo-Sorb E carbon dioxide absorber, mixed with PermaFluor® E+ liquid scintillation cocktail, and counted in a Tri-Carb Model 3100 TR/LL liquid scintillation counter (Perkin Elmer). The oxidation efficiency of the oxidizer was 98.2%.

Data set [2] is described as follows: Dog blood and plasma radioactivity concentrations after single 15 mg/kg oral enteric-coated capsule of [14C]DCDQ. The settings on record: 15 mg/kg oral capsule; for Blood concentration of radioactivity, individual dogs 1-4 / Plasma concentration of radioactivity, individual dogs 1-4: 15 mg/kg. Format: in vivo, beagle dogs. As for the experimental part: About 11 mg of [^14C]DCDQ hydrochloride and 940 mg of non-labeled DCDQ hydrochloride were dissolved in methanol and then evaporated under a nitrogen stream to dryness. Capsules (#2) were filled with accurate amounts (126.7-138.1 mg) of the mixed drug substance according to animal weights. The filled gelatin capsules were then enteric-coated manually. Four male beagle dogs, weighing from 7.6 to 9.8 kg at the time of dosing, were from an in-house colony. Each dog was given one enteric-coated capsule containing [^14C]DCDQ as the hydrochloride salt. Animals were fed two hours prior to dosing and provided Purina dog chow and water ad libitum, and were housed individually in metabolic cages. Blood samples were collected from the jugular vein at 2, 4, 8, 24 and 48 hour after dose administration into tubes containing potassium EDTA as the anticoagulant and then placed on ice. Aliquots of 50 μL were removed for combustion and determination of radioactivity content. Plasma was immediately obtained from the remaining blood by centrifugation at 4° C. Urine samples were collected into tubes on dry ice at intervals of 0-8, 8-24 and 24-48 hour post-dose. Fecal samples were collected at intervals of 0-8, 8-24 and 24-48 hour post-dose at room temperature, and were homogenized. The biological specimens were stored at approximately −70° C. until analysis. Aliquots of 50 μL of plasma and 100-200 μL of urine were analyzed for radioactivity concentrations. Radioactivity determinations of dose, plasma, and urine were made with a Tri-Carb Model 3100 TR/LL LSC using 5-10 mL of Ultima Gold as the scintillation fluid. Feces were weighed and homogenized in water at a volume-to-weight ratio of about 5:1. Aliquots of blood (200 μL) and fecal homogenates (0.25-0.53 gram) were placed on Combusto-cones with Combusto-pads and combusted. A model 307 Tri-Carb sample oxidizer, equipped with an Oximate-80 robotic automatic sampler (Perkin Elmer), was used for combustion of blood and fecal samples. The liberated ^14CO2 was trapped with Carbo-Sorb E carbon dioxide absorber, mixed with PermaFluor® E+ liquid scintillation cocktail, and counted on a Tri-Carb Model 3100 TR/LL liquid scintillation counter (Perkin Elmer). The efficiency of combustion was 98.9%.

As to `c1cc2c3c(c1)[C@H]1CCC[C@H]1CN3CCNC2` [DCDQ, (9aR,12aS)-4,5,6,7,9,9a,10,11,12,12a-decahydro-cyclopenta[c][1,4]diazepine[6,7,1-ij]quinoline, reference compound], at 5-HT2C, the 5-HT2C agonist activity result was “potent 5-HT2C agonist”.

`c1cc2c3c(c1)[C@H]1CCC[C@H]1CN3CCNC2` [[^14C]DCDQ]: the “Blood concentration of radioactivity, Mean ± SD” value in data set [1] (female rats, 2 hr) worked out at 697 ± 219 ng equivalents/mL; in data set [1] (female rats, 8 hr), 307 ± 68.4 ng equivalents/mL; in data set [1] (male rats, 2 hr), 706 ± 158 ng equivalents/mL; in data set [1] (male rats, 4 hr), 704 ± 18.7 ng equivalents/mL; in data set [1] (male rats, 8 hr), 525 ± 45.3 ng equivalents/mL; in data set [1] (male rats, 24 hr), 68.0 ± 10.0 ng equivalents/mL. Also, the “Blood concentration of radioactivity, Mean ± SD” value in data set [2] (2 hr) is 262 ± 391 ng equivalents/mL; in data set [2] (4 hr), 372 ± 505 ng equivalents/mL; in data set [2] (8 hr), 347 ± 378 ng equivalents/mL; in data set [2] (24 hr), 920 ± 341 ng equivalents/mL; in data set [2] (48 hr) it was 343 ± 79.9 ng equivalents/mL. In addition, the “Plasma concentration of radioactivity, Mean ± SD” value in data set [1] (female rats, 2 hr) was found to be 658 ± 189 ng equivalents/mL; in data set [1] (female rats, 8 hr) it was 338 ± 60.7 ng equivalents/mL; in data set [1] (male rats, 2 hr) it was 632 ± 144 ng equivalents/mL; in data set [1] (male rats, 4 hr), 659 ± 16.5 ng equivalents/mL; in data set [1] (male rats, 8 hr) it was 465 ± 43.1 ng equivalents/mL; in data set [1] (male rats, 24 hr), 46.9 ± 8.30 ng equivalents/mL. For the same compound, the “Plasma concentration of radioactivity, Mean ± SD” value is recorded as 422 ± 573 ng equivalents/mL in data set [2] (2 hr); 564 ± 748 ng equivalents/mL in data set [2] (4 hr); 528 ± 566 ng equivalents/mL in data set [2] (8 hr); 1340 ± 508 ng equivalents/mL in data set [2] (24 hr); 507 ± 135 ng equivalents/mL in data set [2] (48 hr). For the same compound, the “Blood concentration of radioactivity, individuals” value was 661 ng equivalents/mL and 932 ng equivalents/mL and 499 ng equivalents/mL in data set [1] (female rats, 2 hr); 413 ng equivalents/mL and 292 ng equivalents/mL and 406 ng equivalents/mL in data set [1] (female rats, 8 hr); 606 ng equivalents/mL and 624 ng equivalents/mL and 888 ng equivalents/mL in data set [1] (male rats, 2 hr); 698 ng equivalents/mL and 725 ng equivalents/mL and 689 ng equivalents/mL in data set [1] (male rats, 4 hr); 538 ng equivalents/mL and 475 ng equivalents/mL and 562 ng equivalents/mL in data set [1] (male rats, 8 hr); 66.5 ng equivalents/mL and 58.9 ng equivalents/mL and 78.7 ng equivalents/mL in data set [1] (male rats, 24 hr). Besides, the “Plasma concentration of radioactivity, individuals” value in data set [1] (female rats, 2 hr) is 635 ng equivalents/mL and 857 ng equivalents/mL and 481 ng equivalents/mL; in data set [1] (female rats, 8 hr), 362 ng equivalents/mL and 269 ng equivalents/mL and 383 ng equivalents/mL; in data set [1] (male rats, 2 hr), 567 ng equivalents/mL and 531 ng equivalents/mL and 797 ng equivalents/mL; in data set [1] (male rats, 4 hr) it was 678 ng equivalents/mL and 652 ng equivalents/mL and 647 ng equivalents/mL; in data set [1] (male rats, 8 hr), 487 ng equivalents/mL and 415 ng equivalents/mL and 492 ng equivalents/mL; in data set [1] (male rats, 24 hr) it was 50.5 ng equivalents/mL and 37.4 ng equivalents/mL and 52.8 ng equivalents/mL. Besides, the “Blood concentration of radioactivity, individual dogs 1-4” value in data set [2] (2 hr) is 161 ng equivalents/mL and 840 ng equivalents/mL and 48.6 ng equivalents/mL and 0.00 ng equivalents/mL; in data set [2] (4 hr) it was 319 ng equivalents/mL and 1100 ng equivalents/mL and 66.7 ng equivalents/mL and 0.90 ng equivalents/mL; in data set [2] (8 hr) it was 331 ng equivalents/mL and 878 ng equivalents/mL and 176 ng equivalents/mL and 5.41 ng equivalents/mL; in data set [2] (24 hr), 980 ng equivalents/mL and 782 ng equivalents/mL and 1360 ng equivalents/mL and 556 ng equivalents/mL; in data set [2] (48 hr), 333 ng equivalents/mL and 434 ng equivalents/mL and 364 ng equivalents/mL and 241 ng equivalents/mL. Moreover, the “Plasma concentration of radioactivity, individual dogs 1-4” value was 360 ng equivalents/mL and 1250 ng equivalents/mL and 74.4 ng equivalents/mL and 4.13 ng equivalents/mL in data set [2] (2 hr); 500 ng equivalents/mL and 1640 ng equivalents/mL and 112 ng equivalents/mL and 4.13 ng equivalents/mL in data set [2] (4 hr); 541 ng equivalents/mL and 1310 ng equivalents/mL and 256 ng equivalents/mL and 4.13 ng equivalents/mL in data set [2] (8 hr); 1530 ng equivalents/mL and 1110 ng equivalents/mL and 1940 ng equivalents/mL and 769 ng equivalents/mL in data set [2] (24 hr); 504 ng equivalents/mL and 669 ng equivalents/mL and 517 ng equivalents/mL and 339 ng equivalents/mL in data set [2] (48 hr).
